Key:
mice = settings: cited from earlier work
male Sprague-Dawley rats = assay: Example 4: effects on prostate and testis of male rats, 6 weeks; assay type: in vivo, rat; settings: for Prostate Weight as % Body Weight / Seminal Vesicle Weight as % Body Weight / Testis Weight as % Body Weight / Body Weight (g): 0.1 ug/g of body weight once a day, mean ± SEM; for Body Weight (g): n = 10
Description: Sixty male Sprague-Dawley rats, 7-8 weeks of age, were randomly assigned to groups of ten animals. Each group was randomly assigned to one of six treatments: Vehicle control (C), Estradiol-17β(E), (−)-Z-BDDA, (+)-Z-BDDA, (−)-HAA, and (+)-HAA. The compounds were all administered at a dose of 0.1 μg/g of body weight in 0.1 cc once a day for 6 weeks. The estrogenic compounds were dissolved in 10% ethanol and 90% olive oil vehicle. A temperature of 21° C. and an artificial 12 h light-dark cycle were maintained in the animal room. All animals were maintained on standard chow in powdered form for six weeks, and then sacrificed after an overnight fast under i.p. pentobarbitol anesthesia (50 mg/kg). Animal weight was measured weekly during the study. During sacrifice, blood was collected via cardiac puncture. Immediately following sacrifice, the fat pads, livers, pituitaries, testes, seminal vesicles, and prostate were removed and weighed, and snap frozen in liquid nitrogen. Prostates and one testis from 2-3 animals in each treatment group were fixed in 10% formalin for histological examination. These tissues were fixed overnight, blocked in paraffin, sectioned at 4 μm, stained with Hematoxylin and Eodsin, cover slipped, and examined microscopically. Quantitative results were subjected to an analysis of variance and means separated by a Tukey's Test (SYSTAT, Chicago, Ill.).

[1] = system: MCF-7 human mammary cancer cell line; settings: human MCF-7 cells in culture; cited from earlier work
[2] = system: primary porcine granulosa cells; assay: In situ apoptosis assay in primary porcine granulosa cells; assay type: cell-based; settings: 24 hr treatment, 0.1, 1 and 10 μM combined, serum-free MEM; controls 63.4% / 68.4%
Description: Porcine ovaries were obtained from local packing plants and transported to the laboratory on ice-cold Hank's balanced salt solution (HBSS). Each of the follicles was aspirated with an insulin syringe, and the follicular fluid was centrifuged at 3000 rpm and 4° C. for 15 min. The supernatant was poured off and the cells were washed in 5 mls of cold HBSS and centrifuged for another 10 min. The cells were again resuspended in HBSS, and the number of viable cells counted under the microscope using a hematocytometer. Once the number of cells was determined, the cells were centrifuged again for 10 min. and resuspended in the appropriate volume of Eagle's minimum essential media (MEM) containing 10% fetal bovine serum (FBS) and antibiotic/antimycotics. The cells were plated at 250,000 per well in 8 chamber microscope slides (Nunc, Naperville, Ill.) which were pre-treated with poly-L-lysine for 10 min. The slides were incubated at 5% CO2/95% air at 37° C. Approximately 12 hours later, the medium was removed by vacuum and replaced with pre-warmed, serum-free MEM. Cells were then treated for 2-3 hrs with MEM only to wash out any estrogen effects from the serum (Winters et al. (1994) Biol. Reprod. 50 (Suppl. 1):113; Suttner et al. (1998) Biol. Reprod. 59 (Suppl.): (Accepted for publication). Following serum-free MEM treatment, cells were treated for 24 hr with (+) or (−) enantiomers of Z-BDDA or estradiol at 0. 1, 1, and 10 μM, or EtOH vehicle control in serum-free MEM. Cells were subsequently processed using an in situ apoptosis assay kit (Apotag-Plus In Situ Apoptosis Kit-Peroxidase, Edition 1.1., Oncor, Gaithersburg, Md., 1995) to study ovarian apoptosis (Suttner et al., 1998). The slides were washed in two changes of PBS for 5 min each, and then quenched in 2% hydrogen peroxide in methanol for 5 min. at room temperature. After pre-treatment with an equilibration buffer, 13 ul of Terminal deoxynucleotidyl Transferase (TdT) diluted with reaction buffer and distilled water were added, and the slides were incubated for 1 h at 37° C. in a humidified chamber. After this 1 h period, the slides were put in pre-warmed stop wash buffer in the incubator for 30 min to stop the reaction. Next, the slides were washed in three changes of PBS for 5 min. each, and the anti-digoxigenin peroxidase was placed on the slides for 30 min. in a humidified chamber at room temperature. […] The degree of apoptosis for the calorimetric apoptosis assay was quantified microscopically using an image analysis system (Optimas 5.23, Optimas Users Guide, 5th Edition, Redmond, Wash.). Ten measurements (captured images) were taken for each concentration based on a pre-determined grid. […] Percentage area of each color was then quantitated using the image analysis system. […]

[3] = system: male and female Wistar rats; assay: Experiment 2: chronic treatment of male and female rats, 5-6 weeks; assay type: in vivo, rat; settings: for Food intake: n = 5
Description: Twenty-five male and 25 female Wistar rats, 7-8 weeks of age, were randomly assigned to groups of five animals, respectively, for treatment with vehicle only (V), estradiol (E), (±)-Z-BDDA, (+)-Z-BDDA, or (−)-Z-BDDA. Each animal in group V received a daily 0.1 cc injection of a 10% ethanol-90% olive oil solution; the other treatments received their respective compound as a daily 0.1 cc injection, e.g., 2.5 μg of compound/g of body weight, in a 10% ethanol-90% olive oil solution. A temperature of 21° C. and an artificial 12-h light-dark cycle were maintained in the animal room. All animals were maintained on standard chow in powdered form, the males for five weeks and the females for six weeks, then sacrificed after an overnight fast under i.p. pentobarbital anesthesia (50 mg/kg). Animal weight and food intake were measured weekly during the study and subsequent FER values were determined. During sacrifice, blood was collected (via cardiac puncture) for glucose, luteinizing hormone, prolactin and testosterone measurements. The amounts of luteinizing hormone, prolactin and testosterone were measured to help elucidate the target tissue of the respective compounds in male and female rats. Immediately following sacrifice the fat pads and reproductive organs were removed and weighed.
Experiments 1 and 2 employed a randomized design. All data were analyzed by one-way analysis of variance (ANOVA,)and post-hoc comparisons were made with Tukey pairwise comparisons test. Significance was confirmed at p≦0.05 (SYSTAT 7.0, SPSS INC., 1997), and all values are reported as means±standard error of the mean.

dialyzed LDL = assay: Oxidized LDL lag time assay (antioxidant capacity); set-up: species or system human; settings: 3 μM Cu2SO4, drugs at 10^−4, 10^−5, 10^−6, and 10^−7 M
Description: Experiments were carried out on dialyzed LDL collected from four fasted persons. The LDL was used within 10 days of dialysis. The oxidizing agent was 3 μM […]; phosphate buffered saline was used to control pH, and all drugs were dissolved in ethanol; final concentrations of each drug in the assays were 10^−4, 10^−5, 10^−6, and 10^−7 M. The combined results are shown in FIG. 6.

[4] = system: rats, cats, chicks, and guinea pigs; settings: animals including rats; cited from earlier work
[5] = female rats, 2.5 ug/g of body weight daily, six weeks, mean ± SEM
[6] = male rats, 2.5 ug/g of body weight daily, five weeks, mean ± SEM

Structure (SMILES) | testis histology: spermatogenesis (male Sprague-Dawley rats; 0.1 μg/g daily, FIGS. 5a-f) | Prostate Weight as % Body Weight (male Sprague-Dawley rats) | Seminal Vesicle Weight as % Body Weight (male Sprague-Dawley rats) | Testis Weight as % Body Weight (male Sprague-Dawley rats) | Body Weight (g) (male Sprague-Dawley rats) | antioxidant activity (shift in lag time of LDL oxidation) (dialyzed LDL) | also measured
CC[C@H](c1ccc2cc(O)ccc2c1)C(C)(C)C(=O)O [(+)-HAA] | halted at round spermatid, with a few spermatogenic cells showing elongation (acrosome phase) | 0.08 ± 0.01^1 % Body Weight | 0.10 ± 0.04 % Body Weight | 0.38 ± 0.02^1,4 % Body Weight | 196.2 ± 5.2^1,4,5 g |  | effect on sulfate incorporation and weight gain (mice): significant depression of sulfate incorporation without the corresponding effects on weight gain
CC[C@@H](c1ccc2cc(O)ccc2c1)C(C)(C)C(=O)O [(−)-HAA] | halted at round spermatid, with a few reaching cap phase | 0.08 ± 0.01^1 % Body Weight | 0.04 ± 0.00^1,4 % Body Weight | 0.31 ± 0.01^1,4 % Body Weight | 180.9 ± 4.5^1,2,4 g |  | activity in inhibition of weight gain and sulfate incorporation, relative to compound 2 (mice): 100 fold; prostate histology (alveoli) (male Sprague-Dawley rats; 0.1 μg/g daily, FIGS. 4a-f): largest degree of atrophy; MCF-7 cell proliferation (estrogenicity) [1]: highly effective
CC[C@@H]1c2ccc3cc(O)ccc3c2CC[C@]1(C)C(=O)O [(−)-Z-BDDA, (−)-Z-bisdehydrodoisynolic acid] | halted primarily at the secondary spermatocyte phase | 0.08 ± 0.00^1 % Body Weight | 0.06 ± 0.02^4 % Body Weight | 0.31 ± 0.02^1,4 % Body Weight | 166.5 ± 4.5^1,2,4 g | significant antioxidant activity | testis histology: Leydig cells (male Sprague-Dawley rats; 0.1 μg/g daily, FIGS. 5a-f): severely atrophied Leydig cells, the smallest of all the treatments; mean apoptosis (% area) [2]: 26.1%; Uterus/testis weight (g) ([3]; female rats (uterus), 2.5 ug/g of body weight daily, six weeks, mean ± SEM): 1.44 ± 0.34^2,3,4 g; Blood glucose [3, 5]: 95.00 ± 8.33 mg/dL; FER (food efficiency ratio) [3, 5]: 0.011 ± 0.005^1,2; Food intake [3, 5]: 675.2 ± 37.9 g; weight gain (percent weight change) ([3]; female rats, both experiments (FIGS. 2 and 3), 2.5 μg/g daily): repress weight gain slightly more than did (+)-Z-BDDA and E2; Uterus/testis weight (g) ([3]; male rats (testis), 2.5 ug/g of body weight daily, five weeks, mean ± SEM): 0.57 ± 0.04^1 g; testosterone ([3]; male rats, 2.5 μg/g daily, compared to the vehicle): less pronounced; Blood glucose (mg/dl) [3, 6]: 88.00 ± 2.00^1 mg/dl; FER (food efficiency ratio) [3, 6]: −0.01 ± 0.01^1; Prostate weight (g) [3, 6]: 0.03 ± 0.10^1 g; Food intake [3, 6]: 650.0 ± 54.3 g
CC[C@H](c1ccc2cc(OC)ccc2c1)C(C)(C)C(=O)O [compound 3] |  |  |  |  |  |  | estrogenic activity (estrogenicity) in animals [4]: one-fifth the estrogenicity of 2
O=c1c(-c2ccc(O)cc2)coc2cc(O)ccc12 [daidzein] |  |  |  |  |  | Less antioxidant activity | 
O=c1c(-c2ccc(O)cc2)coc2cc(O)cc(O)c12 [genistein] |  |  |  |  |  | Less antioxidant activity | 
